Source: patent US6518243B1, “Desleucyl glycopeptide antibiotics and methods of making same” (Trustees of Princeton University, priority 1999, dated 2003)

Columns and labels:
E. faecalis (CL 4877) = experiment: Zone of inhibition screen, 96 well agar array format; type: cell-based; set-up: scale not given here
Method in brief: (§1)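 Antibacterial testing on a 96-well agar array; each compound screened separately.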

S. aureus (ATCC 29213) = experiment: as above; type: cell-based; set-up: scale not given here
Method in brief: as §1

[1] = zone of inhibition relative to 1 mg/ml stock solution of p-chlorobiphenylvancomycin
[2] = zone of inhibition relative to 1 mg/ml p-chlorobiphenylvancomycin

| Structure (SMILES) | zone score, E. faecalis CL 4877 (E. faecalis (CL 4877); [1]) | zone score, S. aureus ATCC 29213 (S. aureus (ATCC 29213); [1]) | zone score, E. faecalis CL 4877 (E. faecalis (CL 4877); [2]) | zone score, S. aureus ATCC 29213 (S. aureus (ATCC 29213); [2]) |
| --- | --- | --- | --- | --- |
| CC(=O)NC(C)C(=O)NC1C(=O)NC(CC(N)=O)C(=O)NC2C(=O)NC3C(=O)NC(C(=O)NC(C(=O)O)c4cc(O)cc(O)c4-c4cc3ccc4O)C(O)c3ccc(c(Cl)c3)Oc3cc2cc(c3OC2OC(CO)C(O)C(O)C2OC2CC(C)(NCc3ccc(-c4ccc(Cl)cc4)cc3)C(O)C(C)O2)Oc2ccc(cc2Cl)C1O (stereo not shown) [Compound 110] | 2 | 2 | – | – |
| CSCCC(NC(C)=O)C(=O)NC1C(=O)NC(CC(N)=O)C(=O)NC2C(=O)NC3C(=O)NC(C(=O)NC(C(=O)O)c4cc(O)cc(O)c4-c4cc3ccc4O)C(O)c3ccc(c(Cl)c3)Oc3cc2cc(c3OC2OC(CO)C(O)C(O)C2OC2CC(C)(NCc3ccc(-c4ccc(Cl)cc4)cc3)C(O)C(C)O2)Oc2ccc(cc2Cl)C1O (stereo not shown) [Compound 115] | 2 | 2 | – | – |
| CC(=O)N1CC(O)CC1C(=O)NC1C(=O)NC(CC(N)=O)C(=O)NC2C(=O)NC3C(=O)NC(C(=O)NC(C(=O)O)c4cc(O)cc(O)c4-c4cc3ccc4O)C(O)c3ccc(c(Cl)c3)Oc3cc2cc(c3OC2OC(CO)C(O)C(O)C2OC2CC(C)(NCc3ccc(-c4ccc(Cl)cc4)cc3)C(O)C(C)O2)Oc2ccc(cc2Cl)C1O (stereo not shown) [Compound 121] | 2 | 2 | – | – |
| CC1OC(OC2C(Oc3c4cc5cc3Oc3ccc(cc3Cl)C(O)C3NC(=O)C(NC(=O)C5NC(=O)C(CC(N)=O)NC(=O)C(NC(=O)CN(CCO)CCO)C(O)c5ccc(c(Cl)c5)O4)c4ccc(O)c(c4)-c4c(O)cc(O)cc4C(C(=O)O)NC3=O)OC(CO)C(O)C2O)CC(C)(NCc2ccc(-c3ccc(Cl)cc3)cc2)C1O (stereo not shown) [Compound 130] | 2 | 2 | – | – |
| CC(NC(=O)OC(C)(C)C)C(=O)NCC(=O)NCC(=O)NC1C(=O)NC(CC(N)=O)C(=O)NC2C(=O)NC3C(=O)NC(C(=O)NC(C(=O)O)c4cc(O)cc(O)c4-c4cc3ccc4O)C(O)c3ccc(c(Cl)c3)Oc3cc2cc(c3OC2OC(CO)C(O)C(O)C2OC2CC(C)(NCc3ccc(-c4ccc(Cl)cc4)cc3)C(O)C(C)O2)Oc2ccc(cc2Cl)C1O (stereo not shown) [Compound 131] | 2 | 2 | – | – |
| CC(NC(=O)OC(C)(C)C)C(=O)NCC(=O)N(C)CC(=O)NC1C(=O)NC(CC(N)=O)C(=O)NC2C(=O)NC3C(=O)NC(C(=O)NC(C(=O)O)c4cc(O)cc(O)c4-c4cc3ccc4O)C(O)c3ccc(c(Cl)c3)Oc3cc2cc(c3OC2OC(CO)C(O)C(O)C2OC2CC(C)(NCc3ccc(-c4ccc(Cl)cc4)cc3)C(O)C(C)O2)Oc2ccc(cc2Cl)C1O (stereo not shown) [Compound 132] | 2 | 2 | – | – |
| CC1OC(OC2C(Oc3c4cc5cc3Oc3ccc(cc3Cl)C(O)C3NC(=O)C(NC(=O)C5NC(=O)C(CC(N)=O)NC(=O)C(NC(=O)CCC(NC(=O)OC(C)(C)C)C(N)=O)C(O)c5ccc(c(Cl)c5)O4)c4ccc(O)c(c4)-c4c(O)cc(O)cc4C(C(=O)O)NC3=O)OC(CO)C(O)C2O)CC(C)(NCc2ccc(-c3ccc(Cl)cc3)cc2)C1O (stereo not shown) [Compound 137] | 2 | 2 | – | – |
| CC1OC(OC2C(Oc3c4cc5cc3Oc3ccc(cc3Cl)C(O)C3NC(=O)C(NC(=O)C5NC(=O)C(CC(N)=O)NC(=O)C(NC(=O)CNC(=O)CNC(=O)CNC(=O)OC(C)(C)C)C(O)c5ccc(c(Cl)c5)O4)c4ccc(O)c(c4)-c4c(O)cc(O)cc4C(C(=O)O)NC3=O)OC(CO)C(O)C2O)CC(C)(NCc2ccc(-c3ccc(Cl)cc3)cc2)C1O (stereo not shown) [Compound 139] | 2 | 2 | – | – |
| CC1OC(OC2C(Oc3c4cc5cc3Oc3ccc(cc3Cl)C(O)C3NC(=O)C(NC(=O)C5NC(=O)C(CC(N)=O)NC(=O)C(NC(=O)C(CCC(N)=O)NC(=O)OC(C)(C)C)C(O)c5ccc(c(Cl)c5)O4)c4ccc(O)c(c4)-c4c(O)cc(O)cc4C(C(=O)O)NC3=O)OC(CO)C(O)C2O)CC(C)(NCc2ccc(-c3ccc(Cl)cc3)cc2)C1O (stereo not shown) [Compound 141] | 2 | 2 | – | – |
| CC1OC(OC2C(Oc3c4cc5cc3Oc3ccc(cc3Cl)C(O)C(NC(=O)C(O)C(O)C(O)C(O)CO)C(=O)NC(CC(N)=O)C(=O)NC5C(=O)NC3C(=O)NC(C(=O)NC(C(=O)O)c5cc(O)cc(O)c5-c5cc3ccc5O)C(O)c3ccc(c(Cl)c3)O4)OC(CO)C(O)C2O)CC(C)(NCc2ccc(-c3ccc(Cl)cc3)cc2)C1O (stereo not shown) [Compound 157] | 2 | 2 | – | – |
| CC1OC(OC2C(Oc3c4cc5cc3Oc3ccc(cc3Cl)[C@@H](O)[C@@H](NC(=O)[C@@H](CCCNC(=N)N)NC(N)=O)C(=O)N[C@@H](CC(N)=O)C(=O)N[C@H]5C(=O)NC3C(=O)N[C@H](C(=O)N[C@@H](C(=O)O)c5cc(O)cc(O)c5-c5cc3ccc5O)[C@H](O)c3ccc(c(Cl)c3)O4)OC(CO)C(O)C2O)CC(C)(NCc2ccc(-c3ccc(Cl)cc3)cc2)C1O (stereo partly shown) [Compound 187] | 2 | 2 | – | – |
| CC1OC(OC2C(Oc3c4cc5cc3Oc3ccc(cc3Cl)C(O)C3NC(=O)C(NC(=O)C5NC(=O)C(CC(N)=O)NC(=O)C(NC(=O)C=CC(=O)NC(N)=O)C(O)c5ccc(c(Cl)c5)O4)c4ccc(O)c(c4)-c4c(O)cc(O)cc4C(C(=O)O)NC3=O)OC(CO)C(O)C2O)CC(C)(NCc2ccc(-c3ccc(Cl)cc3)cc2)C1O (stereo not shown) [Compound 189] | 2 | 2 | – | – |
| CC(NC=O)C(=O)NC1C(=O)NC(CC(N)=O)C(=O)NC2C(=O)NC3C(=O)NC(C(=O)NC(C(=O)O)c4cc(O)cc(O)c4-c4cc3ccc4O)C(O)c3ccc(c(Cl)c3)Oc3cc2cc(c3OC2OC(CO)C(O)C(O)C2OC2CC(C)(NCc3ccc(-c4ccc(Cl)cc4)cc3)C(O)C(C)O2)Oc2ccc(cc2Cl)C1O (stereo not shown) [Compound 194] | 2 | 2 | – | – |
| CC1OC(OC2C(Oc3c4cc5cc3Oc3ccc(cc3Cl)C(O)C3NC(=O)C(NC(=O)C5NC(=O)C(CC(N)=O)NC(=O)C(NC(=O)CNC(=O)c5cccnc5)C(O)c5ccc(c(Cl)c5)O4)c4ccc(O)c(c4)-c4c(O)cc(O)cc4C(C(=O)O)NC3=O)OC(CO)C(O)C2O)CC(C)(NCc2ccc(-c3ccc(Cl)cc3)cc2)C1O (stereo not shown) [Compound 197] | 2 | 2 | – | – |
| CC1OC(OC2C(Oc3c4cc5cc3Oc3ccc(cc3Cl)C(O)C3NC(=O)C(NC(=O)C5NC(=O)C(CC(N)=O)NC(=O)C(NC(=O)C(=O)NNC(=N)N)C(O)c5ccc(c(Cl)c5)O4)c4ccc(O)c(c4)-c4c(O)cc(O)cc4C(C(=O)O)NC3=O)OC(CO)C(O)C2O)CC(C)(NCc2ccc(-c3ccc(Cl)cc3)cc2)C1O (stereo not shown) [Compound 199] | 2 | 2 | – | – |
| CC1OC(OC2C(Oc3c4cc5cc3Oc3ccc(cc3Cl)C(O)C3NC(=O)C(NC(=O)C5NC(=O)C(CC(N)=O)NC(=O)C(NC(=O)C(N)=O)C(O)c5ccc(c(Cl)c5)O4)c4ccc(O)c(c4)-c4c(O)cc(O)cc4C(C(=O)O)NC3=O)OC(CO)C(O)C2O)CC(C)(NCc2ccc(-c3ccc(Cl)cc3)cc2)C1O (stereo not shown) [Compound 200] | 2 | 2 | – | – |
| CC1OC(OC2C(Oc3c4cc5cc3Oc3ccc(cc3Cl)C(O)C3NC(=O)C(NC(=O)C5NC(=O)C(CC(N)=O)NC(=O)C(NC(=O)C5=CC(O)C(O)C(O)C5)C(O)c5ccc(c(Cl)c5)O4)c4ccc(O)c(c4)-c4c(O)cc(O)cc4C(C(=O)O)NC3=O)OC(CO)C(O)C2O)CC(C)(NCc2ccc(-c3ccc(Cl)cc3)cc2)C1O (stereo not shown) [Compound 201] | 2 | 2 | – | – |
| CC1OC(OC2C(Oc3c4cc5cc3Oc3ccc(cc3Cl)C(O)C3NC(=O)C(NC(=O)C5NC(=O)C(CC(N)=O)NC(=O)C(NC(=O)CCC=O)C(O)c5ccc(c(Cl)c5)O4)c4ccc(O)c(c4)-c4c(O)cc(O)cc4C(C(=O)O)NC3=O)OC(CO)C(O)C2O)CC(C)(NCc2ccc(-c3ccc(Cl)cc3)cc2)C1O (stereo not shown) [Compound 204] | – | – | 2 | 2 |
| CC1OC(OC2C(Oc3c4cc5cc3Oc3ccc(cc3Cl)C(O)C3NC(=O)C(NC(=O)C5NC(=O)C(CC(N)=O)NC(=O)C(NC(=O)CS(=O)(=O)O)C(O)c5ccc(c(Cl)c5)O4)c4ccc(O)c(c4)-c4c(O)cc(O)cc4C(C(=O)O)NC3=O)OC(CO)C(O)C2O)CC(C)(NCc2ccc(-c3ccc(Cl)cc3)cc2)C1O (stereo not shown) [Compound 205] | – | – | 2 | 2 |
| CC1OC(OC2C(Oc3c4cc5cc3Oc3ccc(cc3Cl)C(O)C3NC(=O)C(NC(=O)C5NC(=O)C(CC(N)=O)NC(=O)C(NC(=O)c5c[nH]c(=O)[nH]c5=O)C(O)c5ccc(c(Cl)c5)O4)c4ccc(O)c(c4)-c4c(O)cc(O)cc4C(C(=O)O)NC3=O)OC(CO)C(O)C2O)CC(C)(NCc2ccc(-c3ccc(Cl)cc3)cc2)C1O (stereo not shown) [Compound 208] | – | – | 2 | 2 |
| CC1OC(OC2C(Oc3c4cc5cc3Oc3ccc(cc3Cl)C(O)C3NC(=O)C(NC(=O)C5NC(=O)C(CC(N)=O)NC(=O)C(NC(=O)CNC(=O)CNC(=O)CNC(=O)CNC(=O)OCc5ccccc5)C(O)c5ccc(c(Cl)c5)O4)c4ccc(O)c(c4)-c4c(O)cc(O)cc4C(C(=O)O)NC3=O)OC(CO)C(O)C2O)CC(C)(NCc2ccc(-c3ccc(Cl)cc3)cc2)C1O (stereo not shown) [Compound 214] | – | – | 2 | 2 |
| CC1OC(OC2C(Oc3c4cc5cc3Oc3ccc(cc3Cl)C(O)C3NC(=O)C(NC(=O)C5NC(=O)C(CC(N)=O)NC(=O)C(NC(=O)CNC(=O)CNC(=O)CNC(=O)OCc5ccccc5)C(O)c5ccc(c(Cl)c5)O4)c4ccc(O)c(c4)-c4c(O)cc(O)cc4C(C(=O)O)NC3=O)OC(CO)C(O)C2O)CC(C)(NCc2ccc(-c3ccc(Cl)cc3)cc2)C1O (stereo not shown) [Compound 215] | – | – | 2 | 2 |
| CC=C(N)C(=O)NC1C(=O)NC(CC(N)=O)C(=O)NC2C(=O)NC3C(=O)NC(C(=O)NC(C(=O)O)c4cc(O)cc(O)c4-c4cc3ccc4O)C(O)c3ccc(c(Cl)c3)Oc3cc2cc(c3OC2OC(CO)C(O)C(O)C2OC2CC(C)(NCc3ccc(-c4ccc(Cl)cc4)cc3)C(O)C(C)O2)Oc2ccc(cc2Cl)C1O (stereo not shown) [Compound 219] | – | – | 2 | 2 |
